Columns and labels:
WEE1 kinase enzyme = WEE1 kinase enzyme (Homo sapiens (Human), UniProt P30291); test: WEE1 IC50 determination, LanthaScreen Terbium Labeled TR-FRET kinase assay; format: biochemical; conditions: WEE1 enzyme 1 nM, ATP 10 μM, 1 h
A427 cells [1] = test: Cytotoxicity assay (resazurin) in A427 cells; format: cell-based; conditions: Homo sapiens, A-427, A427, 72 hr, read-out: Cell Viability IC50 A427
A549 cells = test: Cytotoxicity assay (resazurin) in A549 cells; format: cell-based; conditions: Homo sapiens, A549, 96 hr, read-out: Cell Viability IC50 A549
Protocol: Cells were allowed to grow at 37° C. for 24 hr in 5% CO2 environment (culture conditions) in a Nuaire incubator (humidified). Serially diluted test compounds (100 μL) within the desired testing concentration ranges were added to the culture plate were further incubated in culture conditions for 72 hr and 96 hr for A427 and A549 respectively. The experiment was terminated at the designated incubation time by replacing the medium with 100 μL of 1 mM of resazurin (R7017; Sigma) prepared in respective culture medium, and the plates were further incubated in culture conditions for 4-6 hr. Fluorescence was recorded using a multimodal plate reader (Biotek Synergy Neo) at an excitation wavelength of 535 nm and emission wavelength of 590 nm to obtain relative fluorescence units. Data analysis was done by subtracting the background fluorescence (only medium blank) value from each reading and then normalizing with the vehicle control (DMSO treated cells) to obtain percent survival/proliferation. Percent survival was then subtracted by 100 to get the percent inhibition of proliferation which was used to calculate IC50 values.

LoVo cells = test: Cell proliferation assay (Cell Titer-Glo) in LoVo cells; format: cell-based; conditions: Homo sapiens, typically 72 h
Protocol: (§1) The effects of test compounds were studied in five cell lines with various histotypes. The cancer cells (Table 4) were harvested during the logarithmic growth period and counted. Adjust cell concentrations to the appropriated number with respective medium, and add 90 μL cell suspensions to 96-well plates. After cells were seeded, the plates were shaken gently to distribute cells evenly and incubated at 37° C., 5% CO2 on day 1.
(§2) Cells were treated with test compounds at 9 concentrations within a desired concentration range (e.g. 1.5 nM-10 μM) on day 2 by series diluting the test compound stock solution (10 mM in DMSO) with culture medium. Cell viability was assessed by Cell Titer-Glo® as recommended by Promega (Cat. No.: G7572, Promega) typically 72 h post-treatment.
(§3) Cell viability data were plotted using GraphPad Prism (version 5, GraphPad Software, Inc., San Diego, Calif.). In addition, a nonlinear regression model with a sigmoidal dose response and variable slope within GraphPad Prism was used to calculate the IC50 value of individual test compounds.

HCT-116 cells = test: Cell proliferation assay (Cell Titer-Glo) in HCT-116 cells; format: cell-based; conditions: Homo sapiens; HCT-116, Cell Titer-Glo, typically 72 h; read-out: IC50 HCT116
Protocol: as §1, §2, §3

NCI-H460 cells = test: Cell proliferation assay (Cell Titer-Glo) in NCI-H460 cells; format: cell-based; conditions: Homo sapiens, typically 72 h
Protocol: as §1, §2, §3

A427 cells [2] = test: Cell proliferation assay (Cell Titer-Glo) in A427 cells; format: cell-based; conditions: Homo sapiens, A-427, typically 72 h
Protocol: as §1, §3

WEE1 kinase enzyme, sequence (P30291 whole entry): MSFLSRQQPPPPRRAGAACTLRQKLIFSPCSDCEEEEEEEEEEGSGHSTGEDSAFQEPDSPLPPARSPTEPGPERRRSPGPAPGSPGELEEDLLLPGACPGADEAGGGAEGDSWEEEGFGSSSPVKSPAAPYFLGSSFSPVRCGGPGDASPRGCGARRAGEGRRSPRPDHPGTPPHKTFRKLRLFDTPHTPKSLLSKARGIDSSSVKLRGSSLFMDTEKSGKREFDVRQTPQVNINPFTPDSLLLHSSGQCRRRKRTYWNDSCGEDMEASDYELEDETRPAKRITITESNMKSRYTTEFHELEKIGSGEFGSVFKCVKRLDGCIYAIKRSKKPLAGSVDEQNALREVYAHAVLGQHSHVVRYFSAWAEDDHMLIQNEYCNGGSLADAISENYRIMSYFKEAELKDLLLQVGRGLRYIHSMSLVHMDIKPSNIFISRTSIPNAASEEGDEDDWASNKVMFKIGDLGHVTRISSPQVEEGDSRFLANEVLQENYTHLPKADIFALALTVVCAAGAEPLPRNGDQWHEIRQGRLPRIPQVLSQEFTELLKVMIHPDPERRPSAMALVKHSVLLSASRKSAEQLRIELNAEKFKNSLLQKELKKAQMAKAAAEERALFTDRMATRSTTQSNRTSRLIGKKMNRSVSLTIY

C=CCn1c(=O)c2cnc(Nc3ccc4c(c3)CNCC4)nc2n1-c1cccc(C(C)(C)O)n1 [Example 1.1]
IC50 (WEE1 kinase enzyme): 2.4 nM | IC50 (A427 cells [1]): 95 nM | IC50 (A549 cells): 460 nM | IC50 (LoVo cells): 258 nM | IC50 (HCT-116 cells): 1040 nM | IC50 (NCI-H460 cells): > 10000 nM | IC50 (A427 cells [2]): 64 nM

— patent US11299493B2, “Heterocyclic compounds and uses thereof” (NUVATION BIO INC., priority 2017, dated 2022)
